Reference: US7038055B2, “Sulfone derivatives and their use in the treatment of autoimmune diseases and allergies” (SmithKlineBeecham plc, priority 2001, dated 2006)

Assays:
[1] = target: T1, MMP-13 (Homo sapiens, UniProt P45452); assay: General MMP Inhibition Assay, fluorescence quench (MMP-13); assay type: biochemical; details: room temperature
T1 construct: purchased Calbiochem
Description: (§1) General MMP Inhibition Assays:
(§2) Inhibition of matrix metalloprotease activity was determined using a fluorescence quench assay with appropriate substrate. For example, MMP activity was determined using MMP activated using trypsin, according to Lark et al, Connective Tissue Res. 25, 52 (1990). The MMP is incubated at room temperature in a microtitre plate in a total volume of 100 ul, containing 0.15 M Tris Cl, 15 mM CaCl2, 0.2 M NaCl, pH 7.6 (assay buffer); inhibitor at concentrations up to 100 uM, with no more than 2% DMSO final concentration, 10 uM substrate (such as SDP-3815-PI for MMP-1, Peptides International). The MMP concentration is <10 nM, and determined empirically with the appropriate substrate to give at least a 20-fold increase in fluorescence emission in 30 min. Fluorescent excitation wavelength was 355 nm, emission wavelength 400–460 nm, and data points are collected to generate slope (change in fluorescence with time). Percent inhibition for each concentration is calculated from the slope at time zero, and IC50 values from the concentration dependence. MMP-1, 2, 3, 7, 9, 13, 14 may all be assayed in the same manner, using commercially available substrates reported to be effective for each enzyme. Enzymes were obtained from Calbiochem and activated using the same trypsin method.

[2] = system: CD23 cleavage activity (release of soluble CD23) in RPMI 8866 cell plasma membranes; assay: RPMI 8866 Cell Membrane CD23 Cleavage Activity Assay; assay type: biochemical, human; details: RPMI 8866 plasma membranes, 37° C., sCD23 by EIA; read-out: IC50, inhibition of production of sCD23
Description: Procedure 1: The ability of test compounds to inhibit the release of soluble CD23 was investigated by use of the following procedure.
RPMI 8866 Cell Membrane CD23 Cleavage Activity Assay:
Plasma membranes from RPMI 8866 cells, a human Epstein-Barr virus transformed B-cell line (Sarfati et al., Immunology 60 [1987] 539–547) expressing high levels of CD23 are purified using an aqueous extraction method. Cells resuspended in homogenization buffer (20 mM HEPES pH 7.4, 150 mM NaCl, 1.5 mM MgCl2, 1 mM DTT) are broken by N2 cavitation in a Parr bomb and the plasma membrane fraction mixed with other membranes is recovered by centrifugation at 10,000×g. […]
The fractionated membranes are incubated at 37° C. for times up to 4 hrs to produce fragments of CD23 which are separated from the membrane by filtration in 0.2 micron Durapore filter plates (Millipore) after quenching the assay with a non-selecitve MMP inhibitor, e.g. 5 uM Preparation 1 from WO 95/31457 ([4-(N-Hydroxyamino)-2-(R)-isobutyl-3-(S)-(2-thiophenethiomethyl)succinyl]-(S)-phenylalanine-N-methylamide sodium salt, prepared according to the procedure described in Example 11 of WO 90/05719). sCD23 released from the membrane is determined using the EIA kit from The Binding Site (Birmingham, UK) or a similar one utilising MHM6 anti-CD23 mAb [Rowe et al., Int. […]

[3] = target: T2, human recombinant collagenase (Homo sapiens, UniProt P03956); assay: Collagenase Inhibition Assay; assay type: biochemical; details: 37° C., 18 h, 3H type 1 bovine collagen; read-out: IC50, collagenase inhibition (procedure 2)
T2 construct: made in house; host or cells: E. coli
T2 sequence (P03956 100-469): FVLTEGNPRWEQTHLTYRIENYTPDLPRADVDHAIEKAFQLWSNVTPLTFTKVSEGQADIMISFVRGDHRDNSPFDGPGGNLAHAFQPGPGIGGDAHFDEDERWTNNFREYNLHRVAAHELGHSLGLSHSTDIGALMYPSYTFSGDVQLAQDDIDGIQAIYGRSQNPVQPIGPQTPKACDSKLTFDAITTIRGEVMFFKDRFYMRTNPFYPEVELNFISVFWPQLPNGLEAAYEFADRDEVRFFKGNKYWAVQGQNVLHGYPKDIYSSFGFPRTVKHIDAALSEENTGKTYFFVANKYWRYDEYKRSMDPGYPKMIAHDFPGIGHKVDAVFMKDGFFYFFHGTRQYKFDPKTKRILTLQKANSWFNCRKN
Description: Procedure 2: The ability of test compounds to inhibit matrix metalloproteases was investigated using the following procedures.
Collagenase Inhibition Assay:
The potency of compounds to act as inhibitors of collagenase was determined by the method of Cawston and Barrett (Anal. Biochem. 99, 340–345, 1979), hereby incorporated by reference, whereby a 1 mM solution of the inhibitor being tested or dilutions thereof, was incubated at 37° C. for 18 h with collagen and human recombinant collagenase, from synovial fibroblasts cloned, expressed and purified from E. Coli, (buffered with 150 mM Tris, pH 7.6, containing 15 mM calcium chloride, 0.05% Brij 35, 200 mM sodium chloride and 0.02% sodium azide). The collagen was acetylated ^3H type 1 bovine collagen prepared by the method of Cawston and Murphy (methods in Enzymology 80, 711, 1981) The samples were centrifuged to sediment undigested collagen and an aliquot of the radioactive supernatant removed for assay on a scintillation counter as a measure of hydrolysis. The collagenase activity in the presence of 1 mM inhibitor, or dilution thereof, was compared to activity in a control devoid of inhibitor and the results reported as that concentration effecting 50% of the collagenase (IC50).

[4] = target: T3, MMP-3 (Homo sapiens, UniProt P08254); assay: General MMP Inhibition Assay, fluorescence quench (MMP-3); assay type: biochemical; details: room temperature
T3 construct: purchased Calbiochem
T3 sequence (P08254 100-477, species assumed): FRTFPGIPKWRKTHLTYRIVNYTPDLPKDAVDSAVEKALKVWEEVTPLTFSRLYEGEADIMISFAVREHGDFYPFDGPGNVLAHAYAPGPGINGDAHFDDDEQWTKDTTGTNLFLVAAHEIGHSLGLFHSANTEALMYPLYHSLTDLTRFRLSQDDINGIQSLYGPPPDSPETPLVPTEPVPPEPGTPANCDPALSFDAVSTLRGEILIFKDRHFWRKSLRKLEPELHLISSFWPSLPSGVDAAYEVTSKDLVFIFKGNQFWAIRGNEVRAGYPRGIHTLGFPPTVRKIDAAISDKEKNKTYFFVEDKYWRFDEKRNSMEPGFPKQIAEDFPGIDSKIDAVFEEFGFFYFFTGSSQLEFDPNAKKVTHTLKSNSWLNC
Description: as §1, §2

| Structure (SMILES) | IC50 [1] [nM] | IC50 [2] [nM] | IC50 [3] [nM] | IC50 [4] [nM] |
| --- | --- | --- | --- | --- |
| CO[C@@H](C)C(CS(=O)(=O)Cc1cnc2ccccc2c1)N(O)C=O (stereo in doubt) [Example 2, N-[(2R,3S)-3-methoxy-1-(quinolin-3-yl-methanesulfonyl)butan-2-yl]-hydroxyformamide] | 3000 |  |  |  |
| CO[C@H](C)[C@@H](CS(=O)(=O)Cc1cnc2ccccc2c1)N(O)C=O [Example 1, N-[(2S,3R)-3-methoxy-1-(quinolin-3-yl-methanesulfonyl)butan-2-yl]-hydroxyformamide] | 2600 | 20 | > 10000 | > 10000 |
